Experimental data published in patent publication US20100249419A1, “UTILIZATION OF NOVEL COMPOUNDS WITH AMYLOID AFFINITY AND METHOD OF PRODUCING THE SAME” (NIHON MEDI-PHYSICS CO., LTD., priority 2007, published 2010).

What was measured:
[1] = biological target: T1, aggregated Aβ (Aβ1-42) injected into amygdaloid nucleus (Homo sapiens, UniProt P05067); assay: Confirmation of imaging of amyloid in brain (ex vivo autoradiogram, Aβ1-42); parameters: species or system male Wistar rat; conditions: brain slice 60 minutes after tail vein injection
T1 construct: Aβ1-42 (manufactured by Wako) was dissolved in phosphate buffer (pH 7.4); purchased Wako
Procedure: The following experiment was carried out in order to examine whether amyloid in brain can be imaged by the compound of the present invention.
(1) Aβ1-42 (manufactured by Wako) was dissolved in phosphate buffer (pH 7.4) and shaken at 37° C. for 72 hours, to obtain a 1 mg/mL suspension of aggregated Aβ (hereinafter referred to as amyloid suspension in the Examples).
(2) 2.5 μL (corresponding to […]) of the amyloid suspension was injected into an amygdaloid nucleus on one side of a male Wistar rat (7-week old). As a control, 2.5 μL of a phosphate buffered physiological saline solution (pH 7.4) was injected into an amygdaloid nucleus on the other side of the rat. The rats were examined 1 day after the injection of the amyloid suspension and the phosphate buffered physiological saline solution (pH 7.4).
(3) Compound 1 was dissolved in a 10 mg/mL ascorbic acid-containing physiological saline solution to obtain a sample solution (22 MBq/mL in radioactivity concentration in the sample solution). This solution was injected under thiopental anesthesia into the rat through the tail vein (dosage: 0.5 mL, dosed radioactivity: 11-13 MBq equivalent).
(4) Brain was removed 60 minutes after the injection to prepare a brain slice of 10 μm in thickness with a microtome (type: CM3050S, manufactured by LEICA). The brain slice was exposed to an imaging plate for 20 hours, and then image analysis was carried out by use of a Bio-imaging Analyzer (type: BAS-2500; manufactured by FUJIFILM Corporation).
(5) After the completion of the image analysis using the Bio-imaging Analyzer, […]
Thus, it was confirmed that amyloid was deposited on the slice (FIG. 6b).
The same procedures as in Example 12 were performed except using a solution of Compound 2 in a 10 mg/mL ascorbic acid as a sample solution (the radioactive concentration of the sample solution was 25 MBq/mL).
(1) Aβ1-42 (manufactured by Wako) was dissolved in phosphate buffer (pH 7.4) and shaken at 37° C. for 72 hours, to obtain 1 mg/mL of a suspension of aggregated Aβ (hereinafter referred to as amyloid suspension in the Examples).
(3) A sample solution (30 MBq/mL in radioactivity concentration, Example 24) in which Compound 4 was dissolved in a 10 mg/mL ascorbic acid-containing physiological saline solution and a sample solution (30 MBq/mL in radioactivity concentration, Example 25) in which Compound 6 was dissolved in a 10 mg/mL ascorbic acid-containing physiological saline solution were prepared. This solution was injected under thiopental anesthesia into the rat through the tail vein (dosage: 0.5 mL, dosed radioactivity: 11-15 MBq equivalent).
Thus, it was confirmed that amyloid was deposited on the slice (FIG. 12 and FIG. 13).

[2] = biological target: T2, amylin amyloid (Homo sapiens, UniProt P10997); assay: In vitro binding of labeled compound to amylin amyloid (glass fiber filter); conditions: amylin amyloid 0.8 μg/mL, 22° C., 3 hours
T2 construct: Amylin (human) (manufactured by Wako); purchased Wako
T2 sequence (P10997 34-70 limits assumed): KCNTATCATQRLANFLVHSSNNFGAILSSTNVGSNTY
Procedure: (1) Using methods described in Examples 29 and 30, a 1 mg/mL suspension of aggregated amylin was prepared (hereinafter referred to as amyloid suspension in this Example) was prepared.
(8) A solution of Compound 1 which was synthesized by the method above in Example 3 was prepared (radioactivity of 500 MBq/mL), and diluted with a 0.1% bovine serum albumin-containing phosphate buffer (pH 7.4) to prepare a solution of 1.2-112.9 pM in terms of the total amount of 2-[4′-(2″-hydroxyethoxy)phenyl]-6-iodoimidazo[1,2-a]pyridine. […]
(11) The glass fiber filter used for the filtration of the mixture was washed with a 0.1% bovine serum albumin-containing phosphate buffer (0.2 mL×5), and radioactivity of the glass fiber filter was measured with an autowell gamma system (manufactured by Aloka, Type: ARC-7001).
(12) From the measurement results of (11), relation between the amount of Compound 1 binding to amyloid and addition amount of amyloid was evaluated. For a non-specific binding, it was determined from a sample in which no amyloid suspension was added above in (9) (Example 36). […]

[3] = biological target: T3, aggregated amylin (amyloid) (Homo sapiens, UniProt P10997); assay: Inhibition of binding of Thioflavin T to amyloid derived from amylin; conditions: Thioflavin T 5 μmol/L
T3 construct: Amylin (human) (manufactured by Wako); purchased Wako
T3 sequence (P10997 34-70 limits assumed): T2 sequence (P10997 34-70 limits assumed)
Procedure: Amylin is an amyloid accumulating in pancreas of type II diabetes.
(1) Amylin (human) (manufactured by Wako) was dissolved in phosphate buffer (pH 7.4) and shaken at 37° C. for 72 hours, to obtain a 1 mg/mL suspension of aggregated amylin (hereinafter referred to as amyloid suspension in this Example).
(2) According to the method described in a literature (Naiki, H., et al., Laboratory
(3) The amyloid suspension was dissolved in 50 mM phosphate buffer (pH 7.4) at a concentration of amylin of 15 μM.
(4) Samples in which each compound for evaluation and amyloid were dissolved in a 50 mM phosphate buffer (pH 7.4) at final concentrations shown in Table 9 were prepared.
(5) A sample in which 100 μL of 50 mM phosphate buffer (pH 7.4) and 50 μL of 50 mM glycin-NaOH buffer were mixed was made as a blank, and subjected to the same procedure as in (4) and used for a calculation of inhibition ratio.
(6) The microplate filled with the sample solutions was left to stand still at room temperature for 30 hours.
(7) Using the fluorescence strength measured above in (6), the following formula (6): […]
was used to determine the inhibition ratio.

T1 sequence (P05067 672-713): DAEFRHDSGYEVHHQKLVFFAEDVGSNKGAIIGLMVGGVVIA

Row | Substance | Accumulation of radioactivity in amygdaloid nucleus on the amyloid-injected side [1] | Radioactivity of the glass fiber filter versus amyloid non-added group [2] | Inhibition ratio (%) of binding of amyloid (amylin) to Thioflavin T ([3]; compound 1.5 μmol/L) [%] | Inhibition ratio (%) of binding of amyloid (amylin) to Thioflavin T ([3]; compound 15 μmol/L) [%] | Inhibition ratio (%) of binding of amyloid (amylin) to Thioflavin T ([3]; compound 30 μmol/L) [%]
1 | 2-[4′-(3″-hydroxypropoxy)phenyl]-6-[^123I]iodoimidazo[1,2-a]pyridine [Compound 6] | marked accumulation of radioactivity | all high compared to the group without amyloid suspension |  |  | 
2 | 2-[4′-(2″-hydroxyethoxy)phenyl]-6-[^123I]iodoimidazo[1,2-a]pyridine [Compound 1] | marked accumulation of radioactivity | all high compared to the group without amyloid suspension | 34.4 | 51.3 | 46.8
3 | 2-(4′-ethoxyphenyl)-6-[^123I]iodoimidazo[1,2-a]pyridine [Compound 2] | marked accumulation of radioactivity |  | 37.1 | 46.9 | 53.0
